Measured values: patent US6503929B1, “Nitrate salt of anti-ulcer medicine” (Nicox S.A., priority 1998, dated 2003)
Where a name gives a salt, the structure may show the parent alone.

Tests used:
rats [1] = assay: Anti-ulcer activity: gastric lesions produced by absolute ethyl alcohol (Robert et al. model); assay type: in vivo, rat; settings: rats on empty stomach, oral dose 15 minutes before absolute ethyl alcohol (1 ml), sacrificed one hour later, cimetidine 50 mg/Kg, cimetidine nitrate 62,5 mg/Kg, ranitidine 50 mg/Kg, ranitidine nitrate 60 mg/Kg
Procedure: Anti-ulcer activity is evaluated according to the experimental model described in the paper of A. Robert e Al. “Cytoprotection by prostaglandins in rats. Prevention of gastric necrosis produced by alcohol, HCl, NaOH, hypertonic NaCl and thermal injury” 77, 433-43 1979. To 5 groups of 10 rats each, kept on empty stomach since the previous night, 15 minutes before the supply of absolute ethyl alcohol (1 ml), by oral way are supplied: 5 ml/Kg of carboxymethylcellulose aqueous suspension 2%. 50 mg/Kg of cimetidine in 5 ml/Kg of carboxymethylcellulose aqueous suspension 2%. 62,5 mg/Kg of cimetidine nitrate (corresponding to 50 mg/Kg of cimetidine) in 5 ml/Kg of carboxymethylcellulose aqueous suspension 2%. 50 mg/Kg of ranitidine in 5 ml/Kg of carboxymethylcellulose aqueous suspension 2%. 60 mg/Kg of ranitidine nitrate (corresponding to […]) in 5 ml/Kg of carboxymethylcellulose aqueous suspension 2%. A hour later the animals are sacrificed and the gastric lesion incidence is evaluated.

rats [2] = settings: rat, in vivo, po, 100 mg/kg

Molecule | Gastric Damage % (rats [1]) [%] | toxic symptom presence (rats [2]) | Gastric Damage % (rats [1]; mononitrate salt) [%]
CN/C(=N/CCSCc1nc[nH]c1C)NC#N [Cimetidine, cimetidine, reference compound] | 100 |  | 
CNC(=C[N+](=O)[O-])NCCSCc1ccc(CN(C)C)o1 [Ranitidine, ranitidine, reference compound] | 80 |  | 
CNC(=C[N+](=O)[O-])NCCSCc1ccc(CN(C)C)o1 [Ranitidine.HNO3, ranitidine mononitrate salt] |  | In no one of the group animals the toxic symthom presence was noted | 40
cimetidine mononitrate salt [Cimetidine.HNO3] | 50 |  | 
